Biological target: IgE-Tb / sFcεRIα-Y131A-AF488 (Homo sapiens, UniProt P01854, N146Q/N252Q)
Test: IgE-Tb / sFcεRIα-Y131A-AF488 FRET assay (protocol for examples 234 to 501)
Assay type: binding
Details: examples 234 to 501: compound with IgE-Tb 30 minutes before sFcεRIα-Y131A-AF488, incubated 18 hours at room temperature; read-out: Y131A FRET IC50 range
Method: For examples 234 to 501, the assay was conducted according to the following: Each assay reaction was conducted in a volume of 25 μl in a 384-well half-volume plate. 10 point compound serial dilutions (3-fold) were generated in DMSO at a concentration of ×50 that of the final assay concentration (FAC). Compound solutions were then prepared by diluting 10-fold in assay buffer. For the assay, 5l of diluted compound was added to 10 μl of IgE-Tb and incubated for 30 minutes before the addition of 10 μ[…]. FRET reagents FACs were 5 nM IgE-Tb, 25 nM […]. Usually the top FAC of compound in the assay was 10 μM. The final DMSO concentration was 2%. […] The maximum FRET signal (MAX) was measured in wells containing FRET reagents but no compound. The assay was incubated for 18 hours at room temperature, protected from light and evaporation, and with gentle agitation. Measurement of FRET for each well was carried out by exciting at 337 nm and measuring emission at 490/520 nm using a PHERAstar FSX plate reader (BMG Labtech). FRET ratio was calculated as follows: Emission at 520/7Emission at 490×1000. The FRET ratio was used for the data analysis. […] Z' above 0.5 was considered a good assay. Background signal (MIN) was subtracted from all wells. […] Percent inhibition was plotted against compound concentration. IC50 values for each compound were determined using four parameter logistic fit model using the XLFIT5 software package.

Chain of IgE-Tb / sFcεRIα-Y131A-AF488 (P01854 whole entry N146Q/N252Q): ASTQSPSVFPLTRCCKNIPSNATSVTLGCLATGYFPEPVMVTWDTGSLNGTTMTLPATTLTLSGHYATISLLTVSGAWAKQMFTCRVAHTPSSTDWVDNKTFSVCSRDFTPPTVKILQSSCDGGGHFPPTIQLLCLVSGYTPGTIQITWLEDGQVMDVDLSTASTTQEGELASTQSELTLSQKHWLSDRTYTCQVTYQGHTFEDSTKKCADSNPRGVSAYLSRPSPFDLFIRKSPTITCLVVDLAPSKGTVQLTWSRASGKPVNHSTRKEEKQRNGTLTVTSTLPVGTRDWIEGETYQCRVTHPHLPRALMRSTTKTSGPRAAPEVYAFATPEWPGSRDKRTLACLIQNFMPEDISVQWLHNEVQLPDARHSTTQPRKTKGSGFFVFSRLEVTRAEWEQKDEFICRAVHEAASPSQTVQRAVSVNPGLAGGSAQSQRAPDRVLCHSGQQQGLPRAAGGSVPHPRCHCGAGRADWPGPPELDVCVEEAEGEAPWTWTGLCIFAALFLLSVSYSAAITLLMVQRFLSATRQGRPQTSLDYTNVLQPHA

| Structure (SMILES) | IC50 |
| --- | --- |
| Cn1nc(OC(F)F)cc1Nc1nncn1[C@H]1CCc2sc(NC(=O)C3CC3)c(C(=O)NCC3CC3(F)F)c2C1 (mixture of isomers) [Example 458, (5S)-2-(cyclopropanecarbonylamino)-N-[(2,2-difluorocyclopropyl)methyl]-5-[3-[[5-(difluoromethoxy)-2-methylpyrazol-3-yl]amino]-1,2,4-triazol-4-yl]-4,5,6,7-tetrahydro-1-benzothiophene-3-carboxamide] | < 1 µM |
| Cn1nc(C(F)F)cc1Nc1nncn1[C@H]1CCc2sc(NC(=O)C3CC3(F)F)c(C(=O)N[C@H]3C[C@H](F)C3)c2C1 (mixture of isomers) [Example 493, (5S)-2-[(2,2-difluorocyclopropanecarbonyl)amino]-5-[3-[[5-(difluoromethyl)-2-methyl-pyrazol-3-yl]amino]-1,2,4-triazol-4-yl]-N-(trans-3-fluorocyclobutyl)-4,5,6,7-tetrahydrobenzothiophene-3-carboxamide] | < 1 µM |
| Cn1nc(C(F)F)cc1Nc1nncn1[C@H]1CCc2sc(NC(=O)C3CC3)c(C(=O)NC3CC34CC4)c2C1 (mixture of isomers) [Example 494, (5S)-2-cyclopropaneamido-5-(3-{[3-(difluoromethyl)-1-methyl-1H-pyrazol-5-yl]amino}-4H-1,2,4-triazol-4-yl)-N-{spiro[2.2]pentan-1-yl}-4,5,6,7-tetrahydro-1-benzothiophene-3-carboxamide] | < 1 µM |
| Cn1nc(C(F)F)cc1Nc1nncn1[C@H]1CCc2sc(NC(=O)[C@@H]3C[C@H]3F)c(C(=O)NCC3CC3)c2C1 (racemic) [Example 366, (5S)—N-(cyclopropylmethyl)-5-[3-[[5-(difluoromethyl)-2-methylpyrazol-3-yl]amino]-1,2,4-triazol-4-yl]-2-[[(1RS,2SR)-2-fluorocyclopropanecarbonyl]amino]-4,5,6,7-tetrahydro-1-benzothiophene-3-carboxamide] | < 1 µM |
| C[C@H]1c2c(sc(NC(=O)C3CC3)c2C(=O)NCC2CC2)CC[C@@H]1n1cnnc1Nc1cc(C(F)(F)F)nn1C (racemic) [Example 421, (4RS,5RS)-2-(cyclopropanecarbonylamino)-N-(cyclopropylmethyl)-4-methyl-5-[3-[[2-methyl-5-(trifluoromethyl)pyrazol-3-yl]amino]-1,2,4-triazol-4-yl]-4,5,6,7-tetrahydrobenzothiophene-3-carboxamide] | < 1 µM |
| Cn1nc(C(F)F)cc1Nc1nncn1[C@H]1CCc2sc(NC(=O)C3CC3)c(C(=O)NC[C@H]3C[C@H](F)C3)c2C1 (racemic) [Example 497, (5S)-2-(cyclopropanecarbonylamino)-5-[3-[[5-(difluoromethyl)-2-methyl-pyrazol-3-yl]amino]-1,2,4-triazol-4-yl]-N-[(3-fluorocyclobutyl)methyl]-4,5,6,7-tetrahydrobenzothiophene-3-carboxamide] | < 1 µM |
| C[C@H]1CCCN1C(=O)c1ncn([C@H]2CCc3sc(NC(=O)[C@H]4C[C@H]4F)c(C(=O)NCC4CC4)c3C2)c1N (relative stereo) [Example 259, (5S)-5-[5-amino-4-[(2S)-2-methylpyrrolidine-1-carbonyl]imidazol-1-yl]-N-(cyclopropylmethyl)-2-[[(1R*,2R*)-2-fluorocyclopropanecarbonyl]amino]-4,5,6,7-tetrahydrobenzothiophene-3-carboxamide] | < 1 µM |
| Cn1nc(C(F)F)cc1Nc1nncn1[C@H]1CCc2sc(NC(=O)[C@@H]3CC3(F)F)c(C(=O)NC[C@@H]3C[C@@H]3F)c2C1 (relative stereo) [Example 284, (5S)-2-[[(1S*)-2,2-difluorocyclopropanecarbonyl]amino]-5-[3-[[5-(difluoromethyl)-2-methyl-pyrazol-3-yl]amino]-1,2,4-triazol-4-yl]-N-[[(1S,2S)-2-fluorocyclopropyl]methyl]-4,5,6,7-tetrahydrobenzothiophene-3-carboxamide [* or R]] | < 1 µM |
| O=C(NCC1CC1)c1c(NC(=O)C2CC2)sc2c1C[C@@H](n1cnnc1N[C@H]1CN(C(=O)c3ccccc3)CC1(F)F)CC2 (relative stereo) [Example 285, (5S)-5-[3-[[(3S*)-1-benzoyl-4,4-difluoro-pyrrolidin-3-yl]amino]-1,2,4-triazol-4-yl]-2-(cyclopropanecarbonylamino)-N-(cyclopropylmethyl)-4,5,6,7-tetrahydrobenzothiophene-3-carboxamide [* or R]] | < 1 µM |
| Cn1nc(C(F)F)cc1Nc1nncn1[C@H]1CCc2sc(NC(=O)[C@@H]3CC34CC4)c(C(=O)NCC3CC3)c2C1 (relative stereo) [Example 311, (5S)—N-(cyclopropylmethyl)-5-[3-[[5-(difluoromethyl)-2-methyl-pyrazol-3-yl]amino]-1,2,4-triazol-4-yl]-2-[[(2R*)-spiro[2.2]pentane-2-carbonyl]amino]-4,5,6,7-tetrahydrobenzothiophene-3-carboxamide [* or S]] | < 1 µM |
| Cn1nc(OC(F)F)cc1Nc1nncn1[C@H]1CCc2sc(NC(=O)[C@H]3CC3(F)F)c(C(=O)NCC3CC3)c2C1 (relative stereo) [Example 345, (5S)—N-(cyclopropylmethyl)-2-[[(1R*)-2,2-difluorocyclopropanecarbonyl]amino]-5-[3-[[5-(difluoromethoxy)-2-methylpyrazol-3-yl]amino]-1,2,4-triazol-4-yl]-4,5,6,7-tetrahydro-1-benzothiophene-3-carboxamide (* or S)] | < 1 µM |
| Cn1nc(C(F)F)cc1Nc1nncn1[C@H]1CCc2sc(NC(=O)[C@@H]3CC3(F)F)c(C(=O)NCC3CC3)c2C1 (relative stereo) [Example 365, (5S)—N-(cyclopropylmethyl)-2-[[(1R*)-2,2-difluorocyclopropanecarbonyl]amino]-5-[3-[[5-(difluoromethyl)-2-methylpyrazol-3-yl]amino]-1,2,4-triazol-4-yl]-4,5,6,7-tetrahydro-1-benzothiophene-3-carboxamide (* or S)] | < 1 µM |
| C[C@@H]1C[C@H]1C(=O)Nc1sc2c(c1C(=O)NCC1CC1)C[C@@H](n1cnnc1Nc1cc(C(F)F)nn1C)CC2 (relative stereo) [Example 370, (5S)—N-(cyclopropylmethyl)-5-[3-[[5-(difluoromethyl)-2-methylpyrazol-3-yl]amino]-1,2,4-triazol-4-yl]-2-[[(1R*,2R*)-2-methylcyclopropanecarbonyl]amino]-4,5,6,7-tetrahydro-1-benzothiophene-3-carboxamide (* or S)] | < 1 µM |
| C[C@H]1C[C@H]1C(=O)Nc1sc2c(c1C(=O)NCC1CC1)C[C@@H](n1cnnc1Nc1cc(C(F)F)nn1C)CC2 (relative stereo) [Example 371, (5S)—N-(cyclopropylmethyl)-5-[3-[[5-(difluoromethyl)-2-methylpyrazol-3-yl]amino]-1,2,4-triazol-4-yl]-2-[[(1R*,2S*)-2-methylcyclopropanecarbonyl]amino]-4,5,6,7-tetrahydro-1-benzothiophene-3-carboxamide (*1R,2S or 1S,2R)] | < 1 µM |
| Cn1nc(C(F)F)cc1Nc1nncn1[C@H]1CCc2sc(NC(=O)C3CC3)c(C(=O)NC[C@@H]3CC3(C)C)c2C1 (relative stereo) [Example 372, (5S)-2-(cyclopropanecarbonylamino)-5-[3-[[5-(difluoromethyl)-2-methylpyrazol-3-yl]amino]-1,2,4-triazol-4-yl]-N-[[(1R*)-2,2-dimethylcyclopropyl]methyl]-4,5,6,7-tetrahydro-1-benzothiophene-3-carboxamide (* or S)] | < 1 µM |
| Cn1nc(OC(F)F)cc1Nc1nncn1[C@H]1CCc2sc(NC(=O)[C@H]3C[C@@H]3F)c(C(=O)N[C@H]3CC34CC4)c2C1 (relative stereo) [Example 376, (5S)-5-[3-[[5-(difluoromethoxy)-2-methylpyrazol-3-yl]amino]-1,2,4-triazol-4-yl]-2-[[(1R,2S)-2-fluorocyclopropanecarbonyl]amino]-N-[(2R*)-spiro[2.2]pentan-2-yl]-4,5,6,7-tetrahydro-1-benzothiophene-3-carboxamide (* or S)] | < 1 µM |
| COc1cc(Nc2nncn2[C@H]2CCc3sc(NC(=O)[C@@H]4CC45CC5)c(C(=O)NCC4CC4)c3C2)n(C)n1 (relative stereo) [Example 455, (5S)—N-(cyclopropylmethyl)-5-[3-[(5-methoxy-2-methyl-pyrazol-3-yl)amino]-1,2,4-triazo-4-yl]-2-[[(2R*)-spiro[2.2]pentane-2-carbonyl]amino]-4,5,6,7-tetrahydrobenzothiophene-3-carboxamide (* or S)] | < 1 µM |
| COc1cc(Nc2nncn2[C@H]2CCc3sc(NC(=O)[C@H]4C[C@@H]4C)c(C(=O)N[C@@H]4CC45CC5)c3C2)n(C)n1 (relative stereo) [Example 465, (5S)-5-[3-[(5-methoxy-2-methyl-pyrazol-3-yl)amino]-1,2,4-triazol-4-yl]-2-[[(1S,2S)-2-methylcyclopropanecarbonyl]amino]-N-[(2R*)-spiro[2.2]pentan-2-yl]-4,5,6,7-tetrahydrobenzothiophene-3-carboxamide [* or 5]] | < 1 µM |
